One experiment deals with HepG2. Kind of experiment: Cytotoxicity against human HepG2 cells after 48 hrs by MTT assay. The format is functional, cell-based. The following applies: HepG2, 48 h. A general note: Tetrazolium assays rely on reduction of a dye to a coloured formazan, in cell work by metabolically active cells.
The test system of the next experiment is K562. Kind of experiment: Cytotoxicity against human K562 cells after 48 hrs by MTT assay. The format is functional, cell-based. The following applies: K562, 48 h.
Experiment [1] relates to MCF7. Kind of experiment: Cytotoxicity against human MCF7 cells after 48 hrs by MTT assay. The format is functional, cell-based. The following applies: MCF7, 48 h.
The subject of experiment [2] is MCF7. Kind of experiment: Induction of apoptosis in human MCF7 cells assessed as apoptotic cells at 2 uM after 24 hrs using propidium iodide/annexin V staining by flow cytometry (reference value: 3.07 %). Type of experiment: functional. Background: A flow cytometer gives signals particle by particle.
Experiment [3] relates to MCF7. Put plainly: Induction of apoptosis in human MCF7 cells assessed as pre-necrotic cells at 1 uM after 24 hrs using propidium iodide/annexin V staining by flow cytometry (reference value: 0.05 %). Type of experiment: functional.
In experiment [4] the test system is MCF7. Put plainly: Induction of apoptosis in human MCF7 cells assessed as membrane blebbing at 1 to 3 uM after 24 hrs by DAPI staining based confocal laser scanning microscopy. The format is functional, cell-based.
Experiment [5] deals with MCF7. Put plainly: Induction of apoptosis in human MCF7 cells assessed as cell shrinkage at 1 to 3 uM after 24 hrs by DAPI staining based confocal laser scanning microscopy. Type of experiment: functional.
Experiment [6] relates to MCF7. Kind of experiment: Induction of apoptosis in human MCF7 cells assessed as increase in ROS production after 24 hrs by fluorescence analysis. The format is functional, cell-based.
The test system of experiment [7] is MCF7. Put plainly: Induction of apoptosis in human MCF7 cells assessed as late apoptotic cells at 1 uM after 24 hrs using propidium iodide/annexin V staining by flow cytometry (reference value: 0.11 %). The format is functional.
The subject of experiment [8] is MCF7. Kind of experiment: Induction of apoptosis in human MCF7 cells assessed as chromatin condensation at 1 to 3 uM after 24 hrs by DAPI staining based confocal laser scanning microscopy. The format is functional, cell-based.
For experiment [9], the system named is MCF7. Put plainly: Induction of apoptosis in human MCF7 cells assessed as apoptotic cells at 1 uM after 24 hrs using propidium iodide/annexin V staining by flow cytometry (reference value: 3.07 %). Type of experiment: functional.
The subject of experiment [10] is MCF7. Kind of experiment: Induction of apoptosis in human MCF7 cells assessed as pre-necrotic cells at 3 uM after 24 hrs using propidium iodide/annexin V staining by flow cytometry (reference value: 0.05 %). The format is functional.
The subject of experiment [11] is MCF7. Put plainly: Induction of apoptosis in human MCF7 cells assessed as pre-necrotic cells at 2 uM after 24 hrs using propidium iodide/annexin V staining by flow cytometry (reference value: 0.05 %). Type of experiment: functional.
Experiment [12] concerns MCF7. Put plainly: Induction of apoptosis in human MCF7 cells assessed as late apoptotic cells at 3 uM after 24 hrs using propidium iodide/annexin V staining by flow cytometry (reference value: 0.11 %). Type of experiment: functional.
Experiment [13] has as its system MCF7. Kind of experiment: Induction of apoptosis in human MCF7 cells assessed as loss of mitochondrial membrane potential by JC-1 staining based flow cytometry. Type of experiment: functional, cell-based.
Experiment [14] deals with MCF7. Kind of experiment: Induction of apoptosis in human MCF7 cells assessed as apoptotic cells at 3 uM after 24 hrs using propidium iodide/annexin V staining by flow cytometry (reference value: 3.07 %). Type of experiment: functional.
Experiment [15] relates to MCF7. Put plainly: Induction of apoptosis in human MCF7 cells assessed as late apoptotic cells at 2 uM after 24 hrs using propidium iodide/annexin V staining by flow cytometry (reference value: 0.11 %). The format is functional.
The test system of experiment [16] is MCF7. Put plainly: Induction of apoptosis in human MCF7 cells assessed as apoptotic body formation at 1 to 3 uM after 24 hrs by DAPI staining based confocal laser scanning microscopy. The format is functional, cell-based.

Activity calls are given as the source filed them. No cut-off for these calls is given here. Some results are limits rather than exact numbers.

As for `COC(=O)[C@H]1O[C@@H](O[C@H]2CC[C@]3(C)[C@H]4C(=O)C=C5[C@@H]6C[C@@](C)(C(=O)O)CC[C@]6(C)CC[C@@]5(C)[C@]4(C)CC[C@H]3C2(C)C)[C@H](O)[C@@H](O[C@@H]2O[C@H](CO)[C@@H](O)[C@H](O)[C@H]2O)[C@@H]1O`, the IC50 in the experiment on HepG2, with K562 and in the experiment with MCF7 [1] was greater than 60 µM throughout.
As for `COC(=O)[C@H]1O[C@@H](O[C@H]2CC[C@]3(C)[C@H]4CC=C5[C@@H]6[C@@H](C)[C@H](C)CC[C@]6(C(=O)O)CC[C@@]5(C)[C@]4(C)CC[C@H]3C2(C)C)[C@H](O)[C@@H](O[C@@H]2O[C@H](CO)[C@H](O)[C@H](O)[C@H]2O)[C@@H]1O`, the IC50 is 47.1 µM with HepG2, greater than 60 µM in the experiment on K562 and 22.1 µM in the experiment on MCF7 [1].
On the same counts, the results for `COC(=O)[C@H]1O[C@@H](O[C@H]2CC[C@]3(C)[C@H]4C(=O)C=C5[C@@H]6C[C@@](C)(C(=O)O)CC[C@]6(C)CC[C@@]5(C)[C@]4(C)CC[C@H]3C2(C)C)[C@H](O)[C@@H](O[C@@H]2O[C@H](CO)[C@H](O)[C@H](O)[C@H]2O)[C@@H]1O` are greater than 60 µM, greater than 60 µM and greater than 60 µM.
Take `COC(=O)[C@H]1O[C@@H](O[C@H]2CC[C@]3(C)[C@H]4CC=C5[C@@H]6[C@@H](C)[C@H](C)CC[C@]6(C(=O)O)CC[C@@]5(C)[C@]4(C)CC[C@H]3C2(C)C)[C@H](O)[C@@H](O[C@@H]2O[C@H](CO)[C@@H](O)[C@H](O)[C@H]2O)[C@@H]1O`: the IC50 is 44.7 µM in the experiment with HepG2, greater than 60 µM with K562 and 23.3 µM in the experiment with MCF7 [1].
Take `COC(=O)[C@H]1O[C@@H](O[C@H]2CC[C@]3(C)[C@H]4CC=C5[C@@H]6CC(C)(C)CC[C@]6(C(=O)O)CC[C@@]5(C)[C@]4(C)CC[C@H]3C2(C)C)[C@H](O)[C@@H](O[C@@H]2O[C@H](CO)[C@H](O)[C@H](O)[C@H]2O)[C@@H]1O`: the IC50 in the experiment with HepG2 came out at 2.24 µM; with K562, 2.36 µM; with MCF7 [1] it was 1.87 µM. The Activity in the experiment with MCF7 [2] was 2.42%; in the experiment on MCF7 [3] it was 2.2%; in the experiment with MCF7 [6], “Dose-dependent effect”; in the experiment on MCF7 [7] it was 8.43%; in the experiment with MCF7 [9], 4.33%; in the experiment on MCF7 [10], 18.81%. For the same molecule, the Activity is 2.84% in the experiment with MCF7 [11]; 29.61% with MCF7 [12]; “Dose-dependent effect” in the experiment on MCF7 [13]; 3.26% with MCF7 [14]; 18.44% in the experiment with MCF7 [15]. The result in the experiment with MCF7 [4], in the experiment on MCF7 [5], in the experiment on MCF7 [8] and with MCF7 [16] was Active.
For the molecule `COC(=O)[C@H]1O[C@@H](O[C@H]2CC[C@]3(C)[C@H]4CC=C5[C@@H]6CC(C)(C)CC[C@]6(C(=O)O)CC[C@@]5(C)[C@]4(C)CC[C@H]3C2(C)C)[C@H](O)[C@@H](O[C@@H]2O[C@H](CO)[C@@H](O)[C@H](O)[C@H]2O)[C@@H]1O` [SPINASAPONIN A METHYL ESTER], the IC50 is 8.36 µM in the experiment on HepG2, 15.7 µM in the experiment with K562 and 4.52 µM with MCF7 [1].

A word on the IC50: it is the concentration needed to halve the response being measured. Low readings indicate greater potency, high ones weaker potency.
